Results on one compound are retold here after patent US20220000872A1, “METHOD OF ENHANCING IMMUNE-BASED THERAPY” (OncoTracker, Inc., priority 2018, published 2022).

Entries after “also recorded” stand apart in the source; their conditions may differ.

Assay [1] deals with PD-L1 gene and protein expression. Description: PD-L1 gene and protein expression in MM tumor cells alone or co-cultured with stromal cells (Example 11). To be noted: concentration dependent pattern. It is filed as cell-based, human. As to the method:
(§1) BM mononuclear cells (MCs) and serum were collected from MM patients and healthy subjects after obtaining IRB approval. Single-cell suspensions were prepared from human MM LAGκ-1A xenografts which had been grown in the mice. The cells were cultured and treated with or without RUX and then were determined by qPCR, flow cytometric analysis, ELISA, and western blot.
(§2) We further investigated the effects of RUX on PD-L1 and PD-L2 expression in primary and stromal cells from MM patients' BM samples in vitro. […] We then determined whether RUX can augment the anti-MM effects of T-cells in vitro. […] To evaluate the efficacy of drugs in vivo, severe combined immune deficient mice implanted with the human MM xenograft LAGκ-2 were treated with RUX (30 mg/kg).

The subject of assay [2] is multiple myeloma. To be noted: Phase 1 clinical trial NCT00639002; cited from earlier work.
The subject of assay [3] is multiple myeloma. To be noted: combined with a thalidomide derivative such as lenalidomide and optionally a steroid or glucocorticoid; cited from earlier work.
A further assay deals with PD-L1 gene expression. Description: PD-L1 gene expression in BMMCs from MM patient #2188 co-cultured with HS-5 stromal cells or THP-1 monocytes. Type of assay: cell-based, human. To be noted: RUX 1 μM, 48 hours. How it is done: We also examined the effects of RUX on PD-L1 gene expression in MM tumor cells co-cultured with stromal cells or monocytes in vitro. BMMCs from MM patient #2188 were co-cultured with stromal cells from the HS-5 cell line (ATCC, CRL-11882) with or without RUX (1 μM) treatment. After 48 hours of co-culture, PD-L1 gene expression was increased in both BMMCs (FIG. 5A) and stromal cells (FIG. 5B) from the co-culture of both cell types compared with its expression in those cell types cultured alone. The increased PD-L1 levels were reduced in the presence of RUX (1 μM) in both cell populations after 48 hours of culture. Similarly, PD-L1 gene expression was increased in both BMMCs and monocytes (THP-1 cells) after co-culture compared with cells cultured alone (FIG. 5C and FIG. 5D) and reduced following exposure to RUX (1 μM).
FIG. 5A depicts relative PD-L1 gene expression in BMMCs from patient #2188 cultured with stromal cells (ATCC, HS-5) with RUX (1 μM) or without for 48 hours. BM, bone marrow cells alone; BM+1 μM, BMMCs treated with 1 μM RUX; BM/BM+S−0 μM, BMMCs with stromal cells without RUX; BM/BM+S+1 μM, BMMCs with stromal cells and 1 μM RUX.
FIG. 5B depicts relative PD-L1 gene expression in stromal cells (ATCC, HS-5) co-cultured with BMMCs from patient #2188 on Transwell inserts with (1 μM) or without RUX for 48 hours. Stroma cells (S) alone; stromal cells+1 μM, stromal cells treated with RUX (1 μM); S/BM+S−0 μM, BMMCs with stromal cells without RUX; S/BM+S−1 μM, BMMCs with stromal cells with RUX at 1 μM.
FIG. 5C depicts relative PD-L1 gene expression in BMMCs from patient #2188 co-cultured with THP-1 monocytes treated with (1 μM) or without RUX for 48 hours. BM, BMMCs alone; BM+1 μM, BMMCs treated with 1 μM RUX; BM/BM+T−0 μM, BMMCs with THP-1 monocytes without RUX; BM/BM+T+1 μM, BMMCs with THP-1 monocytes treated with RUX 1 μM.
FIG. 5D depicts relative PD-L1 gene expression in THP-1 monocytes co-cultured with BMMCs from patient #2188 on Transwell inserts with (1 μM) or without RUX for 48 hours. THP-1 only, THP-1 cells alone; THP-1+1 μM, THP-1 cells treated with 1 μM RUX; T/BM+T−0 μM, MM BMMCs with THP-1 cells without RUX; T/BM+T−1 μM, BMMCs with THP-1 monocytes with RUX (1 μM).

The subject of assay [4] is PD-L1 expression in the xenograft. Description: PD-L1 expression in human MM xenograft LAGκ-2 in severe combined immune deficient mice. It is filed as in vivo. To be noted: LAGκ-2 in SCID mice; RUX 30 mg/kg; vs untreated control group. As to the method: as §2
The test system of assay [5] is CD138+ myeloma tumor cells. Description: Annexin V apoptosis assay of CD138-selected primary myeloma cells co-cultured with IL-2-stimulated T-cells. To be noted: CD138+ cells with IL-2-stimulated SUP-T1 T cells; 72 hours; RUX at varying concentrations; rose from approximately 35% up to this value, concentration dependent. Type of assay: cell-based, human. As to the method:
FIG. 10A depicts an apoptosis assay of fresh CD138-selected myeloma tumor cells combined with IL-2-stimulated T-cells (SUP-T1, ATCC) and treated with ruxolitinib (RUX) in vitro. T-cells were pre-treated with IL-2 (20 ng/ml) for 24 hours. Primary myeloma cells were CD138-selected using an immunoadsorption column and co-cultured with T cells with or without RUX at varying concentrations for 72 hours. Apoptosis in CD138+ cells was measured using the Annexin V assay per the manufacturer's protocol (Biovision) followed with flow cytometric analysis (FC-500 cytometer using Cytometrics CXP software, both Beckman Coulter). Minimal apoptosis was observed without T cells. Apoptosis occurred in a much higher proportion of myeloma tumor cells exposed to IL-2-stimulated T cells (FIG. 10A). RUX increased the fraction of cells that underwent apoptosis from approximately 35% up to about 65% in a concentration dependent fashion.

The test system of assay [6] is PD-L2 gene and protein expression. Description: PD-L2 gene and protein expression in MM tumor cells alone or co-cultured with stromal cells (Example 11). Type of assay: cell-based, human. To be noted: concentration dependent pattern. How it is done:
as §1, §2

The next assay relates to B7-H3. Description: B7-H3 expression (qRT-PCR, flow cytometry, western blot) in MM cells (Example 12). Type of assay: cell-based, human. How it is done: Bone marrow mononuclear cells (BMMCs) were collected from MM patients after obtaining IRB approval. Single-cell suspensions were prepared from human MM LAGλ-1A xenografts which had been grown in severe combined immunodeficient mice. HS-5 stromal and SUP-T1 T cells were purchased from ATCC. The cells were cultured and treated with or without RUX and then subjected to qRT-PCR, flow cytometric analysis, and western blot analysis. For qRT-PCR, total RNA was extracted and applied to cDNA synthesis, followed by qPCR. Gene expression was analyzed in MM BMMCs alone or co-cultured with stromal cells or T cells with or without Rux treatment (1 μM) in vitro.
Background: Real-time PCR tracks product formation cycle by cycle.

In the next assay the test system is IL-2 gene expression. Description: IL-2 gene expression (qPCR) in BMMCs from three MM patients. It is filed as cell-based, human. To be noted: RUX 1 μM, 24 hours. How it is done: BMMCs from three MM patients were treated with RUX (1 μM) for 24 hours with or without co-culture with T cells in vitro. IL-2 gene expression levels were determined using qPCR RUX induced IL-2 expression in BMMCs alone and those co-cultured with T cells (SUP-T1, ATCC) in Trans-well culture dishes.

In the case of `N#CC[C@H](C1CCCC1)n1cc(-c2ncnc3[nH]ccc23)cn1` [RUX, ruxolitinib], the “PD-L1 gene and protein expression in MM tumor cells” value in assay [1] is “markedly reduced”. Also, the “efficacy of monotherapy for multiple myeloma” value in the assay with multiple myeloma [2] is recorded as “ineffective”. Besides, in the assay with multiple myeloma [3], the “efficacy in treating hematological malignancies (in particular, multiple myeloma)” value is “effective”. For the same compound, the “PD-L1 gene expression in stromal cells co-cultured with BMMCs” value with PD-L1 gene expression (HS-5 with patient #2188 BMMCs) is recorded as “reduced”. In addition, in the assay on PD-L1 gene expression (THP-1 with patient #2188 BMMCs), the “PD-L1 gene expression in monocytes (THP-1 cells) co-cultured with BMMCs” value was “reduced”. Further, in the assay on PD-L1 gene expression (patient #2188 BMMCs with HS-5), the “PD-L1 gene expression in BMMCs co-cultured with stromal cells” value is “reduced”. Also, the “PD-L1 gene expression in BMMCs co-cultured with monocytes” value with PD-L1 gene expression (patient #2188 BMMCs with THP-1) is recorded as “reduced”. The “PD-L1 expression in the xenograft” value in assay [4] was “significantly decreased”. Also, the “fraction of cells that underwent apoptosis” value in assay [5] is listed as “about 65%”. Moreover, in [6], the “PD-L2 gene and protein expression in MM tumor cells” value is “markedly reduced”. In the assay with B7-H3 (after 48-72 hours, Rux 1 μM), the “B7-H3 expression in BM from patients in PD co-cultured with stromal cells (HS-5)” value is “significantly reduced”, the “B7-H3 expression in MM cells (U266)” value is “significantly reduced” and the “B7-H3 expression in MMBMMCs in patients with PD” value is “significantly reduced”. Also, the “B7H3 expression in human MM xenograft model LAGλ-1A” value in the assay with B7-H3 (cultured ex vivo) is recorded as “decreased”. Moreover, the “B7-H3 at protein levels” value in the assay with B7-H3 (flow cytometric analysis and western blotting) was “suppressed”. For the same compound, the “IL-2 expression in BMMCs alone” value with IL-2 gene expression was “induced; also recorded: increased”. The “IL-2 expression in BMMCs co-cultured with T cells” value in the assay with IL-2 gene expression (SUP-T1 in Trans-well dishes) is “induced”.
